Assay results taken from patent US6569849B1, “N-Substituted azaheterocyclic compounds” (Novo Nordisk A/S, priority 1996, dated 2003).
Counter-ions that a name gives are not always drawn.

How the values were obtained:
[1] = tested on: histamine induced paw oedema; assay: Histamine induced paw oedema (rat histamine paw oedema test); assay type: in vivo, male Sprague-Dawley rats; conditions: 1.0 mg/kg, intraperitoneally 15 minutes before anaesthetics; paw swelling 20 minutes after histamine, water plethysmography
Protocol: Compounds of formula I may be used to treat all painful, hyperalgesic and/or inflammatory conditions in which C-fibres play a pathophysiological role by eliciting neurogenic pain or inflammation, i.e.: The rat histamine paw oedema test was performed essentially as described by Amann et al. (Europ. J. Pharmacol. 279, 227-231, 1995). In brief 250-300 g male Sprague-Dawley rats were anaesthetized with pentobarbital sodium, and placed on a 32 degree (Celsius) heated table. Ten minutes later histamine (50 micoliter, 3 mg/ml) was injected in the right hind paw and 20 minutes hereafter the paw swelling was determined by water plethysmography (Ugo Basile). Test compounds were administered intraperitoneally at 15 minutes before the anaesthetics. Values for inhibition of histamine induced oedema response for some representative compounds are recorded in table 1.

SMILES	melting point	% Oedema inhibition [1]
Cl.O=C(O)[C@@H]1CCCN(Cc2ccc(C3c4ccccc4CCc4ccccc43)cc2)C1	167 to 175 °C	–
CC(CN1c2ccccc2CCc2ccccc21)CN1CCCCC1C(=O)O (as salt: hydrochloride) (hydrate or solvate) [Example 3, 1-(3-(10,11-Dihydro-5H-dibenzo[b,f]azepin-5-yl)-(2R)-methyl-1-propyl)-(2R)-piperidinecarboxylic Acid Hydrochloride]	201 to 216 °C	–
CC(CCN1c2ccccc2CCc2ccccc21)N1CCC[C@@H](C(=O)O)C1.Cl (stereo partly drawn) (hydrate or solvate)	214 to 218 °C	–
CC(CN1c2ccccc2CCc2ccccc21)N1CCC[C@@H](C(=O)O)C1.Cl (stereo partly drawn) (hydrate or solvate)	213 to 223 °C	–
CC(CN1CCC[C@@H](C(=O)O)C1)=C1c2ccccc2CCc2ccccc21.Cl (hydrate or solvate)	151 to 155 °C	–
CCCC(CN1CCC[C@@H](C(=O)O)C1)CN1c2ccccc2CCc2ccccc21.Cl (stereo partly drawn) (hydrate or solvate)	116 to 120 °C	–
Cl.O=C(O)[C@@H]1CCCN(CCC(=O)N2c3ccccc3CCc3ccccc32)C1 (hydrate or solvate)	180 to 183 °C	–
O=C(O)[C@@H]1CCCN(CC#CCN2c3ccccc3CCc3ccccc32)C1 (hydrate or solvate) [Example 10, (R)-1-(4-(10,11-Dihydro-5H-dibenzo[b,f]azepin-5-yl)-2-butyn-1-yl)-3-piperidinecarboxylic Acid]	153 to 154 °C	–
CN(CCN1CCC[C@@H](C(=O)O)C1)C1c2ccccc2CCc2ccccc21 (hydrate or solvate) [Example 30, (R)-1-(2-(N-(10,11-dihydro-5H-dibenzo[a,d]cyclohepten-5-yl)-N-methylamino)ethyl)-3-piperidinecarboxylic Acid]	187 to 190 °C	–
CC(CN1c2ccccc2CCc2ccccc21)CN1CCCCC1C(=O)O [Example 3, 1-(3-(10,11-Dihydro-5H-dibenzo[b,f]azepin-5-yl)-(2R)-methyl-1-propyl)-(2R)-piperidinecarboxylic Acid Hydrochloride]	–	47%
Cl.O=C(O)[C@@H]1CCCN(C/C=C\CN2c3ccccc3CCc3ccccc32)C1 [Example 4, 1-(4-(10,11-Dihydro-5H-dibenzo[b,f]azepin-5-yl)-(2Z)-butenyl)-(3R)-piperidinecarboxylic Acid Hydrochloride]	–	26%
O=C(O)[C@@H]1CCCN(C(=O)CC=C2c3ccccc3CCc3ccccc32)C1 [Example 5, 1-(3-(10,11-Dihydro-5H-dibenzo[a,d]cyclohepten-5-ylidene)-1-propionyl)-(3R)-piperidinecarboxylic Acid]	71 to 76 °C	–
